# Measurements published in ChEMBL document CHEMBL1136103, “Structure-based drug design of pyrazinone antithrombotics as selective inhibitors of the tissue factor VIIa complex” (Bioorg Med Chem Lett, 2003).
# Experiments:
# [1] = target: Coagulation factor X (Homo sapiens, UniProt P00742); assay: Inhibitory activity against coagulation factor X
# [2] = target: Serine protease 1 (Homo sapiens, UniProt P07477)
# Sequence of Serine protease 1 (P07477 whole entry): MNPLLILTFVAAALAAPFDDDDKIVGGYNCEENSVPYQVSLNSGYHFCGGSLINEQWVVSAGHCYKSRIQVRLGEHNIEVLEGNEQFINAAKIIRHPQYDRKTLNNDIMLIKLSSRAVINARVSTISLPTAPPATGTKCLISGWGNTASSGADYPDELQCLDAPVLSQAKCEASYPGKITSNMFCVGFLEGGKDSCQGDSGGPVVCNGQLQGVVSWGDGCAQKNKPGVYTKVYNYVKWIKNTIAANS
# Description: Inhibitory activity against trypsin
# Sequence of Coagulation factor X (P00742 41-179 limits assumed): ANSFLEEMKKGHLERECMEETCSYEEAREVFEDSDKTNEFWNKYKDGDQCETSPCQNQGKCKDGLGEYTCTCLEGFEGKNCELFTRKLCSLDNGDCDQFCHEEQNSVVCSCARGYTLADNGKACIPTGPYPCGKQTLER
# Sequence of Coagulation factor X (P00742 235-488 limits assumed): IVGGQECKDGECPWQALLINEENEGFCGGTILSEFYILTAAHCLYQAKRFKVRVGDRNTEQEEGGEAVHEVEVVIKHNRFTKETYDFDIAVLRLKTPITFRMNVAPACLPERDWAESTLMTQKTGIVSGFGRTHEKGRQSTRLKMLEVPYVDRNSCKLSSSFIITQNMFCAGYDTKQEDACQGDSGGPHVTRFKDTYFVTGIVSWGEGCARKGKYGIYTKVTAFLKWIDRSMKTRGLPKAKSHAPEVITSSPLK
IC50 [1] [µM],IC50 [2] [nM],SMILES
> 100,64,CC(C)Nc1nc(Cl)c(-c2cc(N)cc(C(=O)O)c2)n(CC(=O)NCc2ccc(C(=N)N)cc2)c1=O
–,470,N=C(N)NCCC[C@H](NC(=O)Cn1c(Cc2ccccc2)c(Cl)nc(NCCc2ccccc2)c1=O)C(=O)c1nccs1
1.41,420,N=C(N)NCCC[C@H](NC(=O)Cn1c(-c2ccccc2)c(Cl)nc(NCCc2ccccc2)c1=O)C(=O)c1nccs1
> 100,32,N=C(N)c1ccc(CNC(=O)Cn2c(-c3cccc(N)c3)c(Cl)nc(NC3CCC3)c2=O)cc1
